Data on 40 compounds can be found in patent publication US20050215548A1 (Cyclacel Limited, priority 2002, published 2005).

The assay addresses T1, HDM2 (Homo sapiens, UniProt Q00987).
T1 construct: Recombinant HDM2 (1.5 μg per well) in TBS-BSA buffer
Briefly: Fluorescence polarisation competitive HDM2 binding assay. As to conditions: fluorescence polarisation format; Table 1; read-out: IC50 In vitro competitive HDM2 binding assay. Here is the method:
This was carried out using a 96-well microtiter plate (Costar) format. Recombinant HDM2 (1.5 μg per well) in TBS-BSA buffer (50 mM Tris pH 7.4, 150 mM NaCl, and 0.1% BSA) was incubated for 5 min at room temperature in the presence of serially diluted test compound (in TBS-BSA buffer with a final concentration of 5% DMSO). Fluorescently labelled p53-derived peptide (fluorescein-[…]NH2, 0.2 μM) was added to each well and the plate was incubated at room temperature for 45 min. The fluorescence polarisation (excitation 485 nm, emission 520 nm) of the peptide was measured. IC50 values were calculated from dose-response curves.
The fluorescence polarisation competitive HDM2 binding assay described in Example 3 was used. Furthermore, the anti-proliferative potency of the compounds against three human tumour cell lines with different genetic make-up was also determined. […] The cell lines used were as follows: AGS, gastric adenocarcinoma, wild-type p53; H1299, large cell lung carcinoma, p53 null, low HDM2; SJSA-1, primitive multipotential bone sarcoma, wild-type p53, overexpressed HDM2.
Background: In fluorescence polarisation assays a small probe gives low polarisation when free and higher when bound to something large.

T1 sequence (Q00987 whole entry): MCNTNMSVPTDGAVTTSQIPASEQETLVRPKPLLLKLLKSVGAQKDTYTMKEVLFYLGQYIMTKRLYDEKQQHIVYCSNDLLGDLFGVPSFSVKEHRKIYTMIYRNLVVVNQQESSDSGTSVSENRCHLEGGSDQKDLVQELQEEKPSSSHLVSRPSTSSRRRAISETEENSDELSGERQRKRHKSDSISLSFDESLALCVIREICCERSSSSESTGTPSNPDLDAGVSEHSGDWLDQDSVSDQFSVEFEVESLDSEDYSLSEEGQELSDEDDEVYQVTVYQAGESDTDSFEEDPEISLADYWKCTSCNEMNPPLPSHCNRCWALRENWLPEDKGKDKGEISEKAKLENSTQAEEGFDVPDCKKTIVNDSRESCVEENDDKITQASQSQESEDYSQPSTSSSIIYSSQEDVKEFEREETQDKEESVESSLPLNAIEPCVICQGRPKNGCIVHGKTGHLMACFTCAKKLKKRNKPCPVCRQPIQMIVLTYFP

In general, IC50 refers to the concentration needed to halve the response being measured. As to `O=[N+]([O-])c1cc(S(=O)(=O)Nc2cccc(C(F)(F)F)c2)sc1Cl` [Compound 1, 5-Chloro-4-nitrothiophene-2-sulfonic acid (3-trifluoromethylphenyl)amide], the IC50 worked out at 409 ± 84 µM. Take `O=S(=O)(Nc1cc(C(F)(F)F)cc(C(F)(F)F)c1)c1cc(Br)c(Br)s1` [Compound 8, 4,5-Dibromothiophene-2-sulfonic acid (3,5-bis-trifluoromethylphenyl)amide]: the IC50 turned out to be 407 µM. Consider `O=S(=O)(Nc1ccc(C(F)(F)F)cc1)c1ccc(Cl)s1` [Compound 9, 5-Chlorothiophene-2-sulfonic acid (4-trifluoromethylphenyl)amide], for which the IC50 is 102 ± 13 µM. As for `O=S(=O)(Nc1ccc(Cl)cc1)c1ccc(Cl)s1` [Compound 10, 5-Chlorothiophene-2-sulfonic acid (4-chlorophenyl)amide], the figure is 320 µM.

For `O=S(=O)(Nc1cc(C(F)(F)F)cc(C(F)(F)F)c1)c1ccc(Cl)s1` [Compound 11, 5-Chlorothiophene-2-sulfonic acid (3,5-bis-trifluoromethylphenyl)amide], the IC50 came to 435 ± 76 µM. With `CSc1ncc(-c2ccc(S(=O)(=O)Nc3cc(Cl)cc(Cl)c3)s2)cn1` [Compound 12, 5-(2-Methylsulfanyl-pyrimidin-5-yl)-thiophene-2-sulfonic acid (3,5-dichlorophenyl)-amide] the figure was 374 ± 12 µM; with `O=S(=O)(Nc1ccc(C(F)(F)F)cc1)c1ccc(-c2ncco2)cc1` [Compound 13, 4-Oxazol-2-yl-N-(4-trifluoromethylphenyl)benzenesulfonamide], 494 µM; with `O=S(=O)(Nc1cc(C(F)(F)F)cc(C(F)(F)F)c1)c1ccc(-c2ncco2)cc1` [Compound 14, N-(3,5-Bis-trifluoromethylphenyl)-4-oxazol-2-yl-benzenesulfonamide], 448 ± 55 µM. As for `O=S(=O)(Nc1ccc(C(F)(F)F)cc1)c1cc(Br)c(Cl)s1` [Compound 15, 4-Bromo-5-chlorothiophene-2-sulfonic acid (4-trifluoromethylphenyl)amide], the figure is 218 ± 15 µM. For the compound `O=S(=O)(Nc1ccc(Cl)cc1)c1ccc(Br)s1` [Compound 16, 5-Bromothiophene-2-sulfonic acid (4-chlorophenyl)amide], the IC50 is 290 ± 54 µM.

In the case of `O=S(=O)(Nc1cc(Cl)cc(Cl)c1)c1ccc(Br)s1` [Compound 17, 5-Bromothiophene-2-sulfonic acid (3,5-dichlorophenyl)amide], the IC50 turned out to be 291 µM. As for `O=S(=O)(Nc1cc(C(F)(F)F)cc(C(F)(F)F)c1)c1ccc(Br)s1` [Compound 18, 5-Bromothiophene-2-sulfonic acid (3,5-bis-trifluoromethylphenyl)amide], the figure is 172 ± 21 µM; as for `O=[N+]([O-])c1cccc(S(=O)(=O)Nc2ccc(Cl)cc2)c1` [Compound 19, N-(4-Chlorophenyl)-3-nitrobenzenesulfonamide], 295 ± 45 µM; as for `O=[N+]([O-])c1cccc(S(=O)(=O)Nc2ccc(C(F)(F)F)cc2)c1` [Compound 20, 3-Nitro-N-(4-trifluoromethylphenyl)benzenesulfonamide], 482 ± 26 µM.

Consider `O=[N+]([O-])c1cccc(S(=O)(=O)Nc2cc(C(F)(F)F)cc(C(F)(F)F)c2)c1` [Compound 21, N-(3,5-Bis-trifluoromethylphenyl)-3-nitrobenzenesulfonamide], for which the 50% inhibitory concentration (IC50) came to 209 ± 38 µM.

In the case of `O=[N+]([O-])c1cccc(S(=O)(=O)Nc2ccc(Cl)cc2Cl)c1` [Compound 22, N-(2,4-Dichlorophenyl)-3-nitrobenzenesulfonamide], the IC50 stood at 441 ± 69 µM. For `O=S(=O)(Nc1ccc(C(F)(F)F)cc1)c1ccc(S(=O)(=O)c2ccccc2)s1` [Compound 23, 5-Benzenesulfonylthiophene-2-sulfonic acid (4-trifluoromethylphenyl)-amide], the concentration for half-maximal inhibition (IC50) was found to be 146 ± 5 µM. Take `O=S(=O)(Nc1ccc(Cl)cc1)c1ccc(S(=O)(=O)c2ccccc2)s1` [Compound 24, 5-Benzenesulfonylthiophene-2-sulfonic acid (4-chlorophenyl)amide]: the IC50 turned out to be 243 ± 59 µM. Regarding `O=S(=O)(Nc1cc(Cl)cc(Cl)c1)c1ccc(S(=O)(=O)c2ccccc2)s1` [Compound 25, 5-Benzenesulfonylthiophene-2-sulfonic acid (3,5-dichlorophenyl)amide], the IC50 turned out to be 288 ± 39 µM. As for `O=S(=O)(Nc1ccc(Cl)c(Cl)c1)c1ccc(Cl)s1` [Compound 26, 5-Chlorothiophene-2-sulfonic acid (3,4-dichlorophenyl)amide], the IC50 stood at 295 ± 36 µM.

For the compound `O=S(=O)(Nc1cccc(C(F)(F)F)c1)c1cc(Br)c(Br)s1` [Compound 27, 4,5-Dibromothiophene-2-sulfonic acid (3-trifluoromethylphenyl)amide], the IC50 amounted to 199 ± 28 µM. As for `O=S(=O)(Nc1ccc(Cl)c(Cl)c1)c1cc(Br)c(Br)s1` [Compound 28, 4,5-Dibromothiophene-2-sulfonic acid (3,4-dichlorophenyl)amide], the figure is 160 ± 31 µM; as for `O=[N+]([O-])c1cc(S(=O)(=O)Nc2cc(C(F)(F)F)cc(C(F)(F)F)c2)ccc1Cl` [Compound 29, N-(3,5-Bis-trifluoromethylphenyl)-4-chloro-3-nitrobenzenesulfonamide], 129 ± 22 µM. As for `O=[N+]([O-])c1cc(S(=O)(=O)Nc2ccc(Cl)c(Cl)c2)ccc1Cl` [Compound 30, 4-Chloro-N-(3,4-dichlorophenyl)-3-nitrobenzenesulfonamide], the figure is 427 ± 3 µM; as for `Cn1ncc(-c2ccc(S(=O)(=O)Nc3ccc(C(F)(F)F)cc3)s2)c1C(F)(F)F` [Compound 31, 5-(1-Methyl-5-trifluoromethyl-1H-pyrazol-4-yl)-thiophene-2-sulfonic acid (4-trifluoromethylphenyl)-amide], 350 ± 10 µM.

On to `O=S(=O)(Nc1ccc(F)cc1)c1cc(S(=O)(=O)Nc2ccc(F)cc2)c(Cl)s1` [Compound 32, 5-Chlorothiophene-2,4-disulfonic acid bis-[(4-fluorophenyl)-amide]], for which the half-inhibitory concentration (IC50) worked out at 408 ± 31 µM. With `Cc1ccc(S(=O)(=O)Nc2ccc(C(F)(F)F)cc2)cc1[N+](=O)[O-]` [Compound 34, 4-Methyl-3-nitro-N-(4-trifluoromethylphenyl)benzenesulfonamide] the figure was 295 ± 23 µM. With `Cc1ccc(S(=O)(=O)Nc2ccc(C(F)(F)F)cc2)cc1N` [Compound 36, 3-Amino-4-methyl-N-(4-trifluoromethyl-phenyl)benzenesulfonamide] the figure was 429 µM; with `Cc1ccc(S(=O)(=O)Nc2ccc(Cl)cc2)cc1[N+](=O)[O-]` [Compound 37, N-(4-Chlorophenyl)-4-methyl-3-nitrobenzenesulfonamide], 294 ± 52 µM; with `CC(C)CN(c1ccc(Cl)cc1)S(=O)(=O)c1cc([N+](=O)[O-])c(Cl)s1` [Compound 58, 5-Chloro-4-nitro-thiophene-2-sulfonic acid (4-chloro-phenyl)-isobutyl-amide], 249 ± 30 µM. With `O=[N+]([O-])c1cc(S(=O)(=O)Nc2nc3ccccc3[nH]2)sc1Cl` [Compound 59, 5-Chloro-4-nitro-thiophene-2-sulfonic acid (1H-benzo-imidazol-2-yl)-amide] the figure was 40 ± 1 µM. `O=[N+]([O-])c1cc(S(=O)(=O)Nc2ccccc2)sc1Cl` [Compound 62, 5-Chloro-4-nitro-thiophene-2-sulfonic acid phenylamide]: the 50% inhibitory concentration (IC50) was found to be 67 ± 1 µM. As for `O=S(=O)(Nc1ccc(Cl)cc1)c1cc(S(=O)(=O)Nc2ccc(Cl)cc2)c(Cl)s1` [Compound 70, 5-Chloro-thiophene-2,4-disulfonic acid bis-[(4-chloro-phenyl)-amide]], the figure is 135 ± 19 µM; as for `CCc1sc(S(=O)(=O)Nc2ccc(Cl)cc2)cc1[N+](=O)[O-]` [Compound 71, 5-Ethyl-4-nitro-thiophene-2-sulfonic acid (4-chloro-phenyl)-amide], 237 ± 35 µM; as for `Cc1sc(S(=O)(=O)Nc2ccc(Cl)cc2)cc1S(=O)(=O)Nc1ccc(Cl)cc1` [Compound 74, 5-Methyl-thiophene-2,4-disulfonic acid bis-[(4-chloro-phenyl)-amide]], 123 ± 15 µM. With `O=[N+]([O-])c1csc(S(=O)(=O)Nc2ccc(C(F)(F)F)cc2)c1` [Compound 76, 4-Nitro-thiophene-2-sulfonic acid (4-trifluoromethyl-phenyl)-amide] the figure was 366 ± 7 µM; with `O=[N+]([O-])c1csc(S(=O)(=O)NCCc2c[nH]c3ccccc23)c1` [Compound 77, 4-Nitro-thiophene-2-sulfonic acid [2-(1H-indol-3-yl)-ethyl]-amide], 247 ± 61 µM. `Cn1nc(-c2ccc(S(=O)(=O)N(Cc3cccc(C(F)(F)F)c3)c3cc(C(F)(F)F)cc(C(F)(F)F)c3)s2)cc1C(F)(F)F` [Compound 78, 5-(1-Methyl-5-tri-fluoromethyl-1H-pyrazol-3-yl)-thiophene-2-sulfonic acid (3,5-bis-tri-fluoromethyl-phenyl)-(3-trifluoro-methyl-benzyl)-amide]: the IC50 worked out at 315 ± 83 µM. In the case of `O=[N+]([O-])c1cc(S(=O)(=O)Nc2ccc(Cl)cc2)sc1N1CCOCC1` [Compound 79, 5-Morpholin-4-yl-4-nitro-thiophene-2-sulfonic acid (4-chloro-phenyl)-amide], the half-maximal inhibitory concentration (IC50) came to 419 ± 31 µM. As for `COCCNc1sc(S(=O)(=O)Nc2ccc(Cl)cc2)cc1[N+](=O)[O-]` [Compound 80, 5-(2-Methoxy-ethylamino)-4-nitro-thiophene-2-sulfonic acid (4-chloro-phenyl)-amide], the figure is 154 ± 27 µM.
